Test results published in PubChem BioAssay AID179 (DTP/NCI, 2004).
Activity calls are given as the source filed them.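 The calls were made as follows: active = compounds giving half or more protection of infected cells from virus-caused growth loss, again on retest; inactive = the rest.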

Test system: CEM cells HIV-1 protection, formazan growth assay
Assay: NCI AIDS Antiviral Assay
Settings: for IC50: measured here: growth of uninfected CEM cells
In short: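 Protection of CEM cells against HIV-1 was scored from cell growth (soluble formazan) across five concentrations, with parallel uninfected cells. Lack of protection may reflect toxicity.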

O=C1[C@@H]2C(c3ccccc3[N+](=O)[O-])=[N+](c3ccccc3)O[C@@H]2C(=O)N1c1ccc(Cc2ccc(N3C(=O)[C@H]4C(c5ccccc5[N+](=O)[O-])=[N+](c5ccccc5)O[C@H]4C3=O)cc2)cc1
EC50: > 8.51 µM
IC50: > 8.51 µM

S=C(SSC(=S)N1CCCCC1)N1CCCCC1
EC50: > 200 µM
IC50: 29.5 µM

CC(C)N(C(C)C)P(=O)(OP(=O)(c1ccc([N+](=O)[O-])cc1)N(C(C)C)C(C)C)c1ccc([N+](=O)[O-])cc1 (stereo not given)
EC50: > 200 µM
IC50: 151 µM

Nc1nc2n[nH]nc2c(=O)[nH]1
EC50: > 89.1 µM
IC50: 0.302 µM

CCN(CC)CCSc1c2ccccc2nc2cc(NCC(=O)Nc3ccccc3-c3ccccc3NC(=O)CNc3ccc4c(SCCN(CC)CC)c5ccccc5nc4c3)ccc12
EC50: > 33.1 µM
IC50: > 33.1 µM

CCC(=O)NCC1(c2c[nH]c3ccccc23)SCCS1
outcome: inactive

O=[N+]([O-])C1(C2([N+](=O)[O-])CCCC2)CCCC1
EC50: 44.7 µM
IC50: 110 µM

Nc1ncnc2nc(CO)[nH]c12
EC50: > 158 µM
IC50: > 158 µM

O=c1c(C2=NCCC2)c(-c2ccc[nH]2)[nH]n1-c1ccccc1
EC50: > 200 µM
IC50: > 200 µM

COC(=O)C1Cc2c([nH]c3ccccc23)[C@H](CC(C)C)N1 (stereo not given in full)
outcome: inactive

Cc1ccc(S(=O)(=O)c2ccsc2NC(=O)C(F)(F)F)cc1
EC50: > 200 µM
IC50: 46.8 µM

CC1=CC(=O)N(n2c(Cc3ccccc3)n[nH]c2=O)C1=O
EC50: > 200 µM
IC50: > 200 µM

CC(=O)OC1CCC23COC(CC(C)C2C)C3(Cl)C1 (stereo not given)
EC50: > 200 µM
IC50: > 200 µM

COc1ccc(C(O)/C(=C/n2ccnc2)c2ccccc2)cc1OC (stereo not given)
EC50: > 537 µM
IC50: > 537 µM

COc1cccc(N2C(=O)[C@H]3[C@H]4CC(C(C)(C)C)CC[C@H]4c4c([nH]c5ccccc45)[C@H]3C2=O)c1 (stereo not given in full)
EC50: 18.2 µM
IC50: 26.9 µM

O=C(NNc1nc2cccnc2n2ccnc12)c1cnccn1
EC50: > 1 µM
IC50: 0.135 µM

CCN(CC)CCn1nc(N)c2nc3ccccc3nc21
EC50: > 200 µM
IC50: 107 µM

Nc1nc(Cl)c(N)c(NCC2(CO)CCC(OCc3ccccc3)C2)n1 (stereo not given)
EC50: > 200 µM
IC50: 26.9 µM

COc1ccc(Cc2nnc(Nc3ccc(Br)cc3)[nH]c2=O)cc1OC
EC50: > 200 µM
IC50: 33.9 µM

O=C1CCCCC/C=C2/CC[C@H](Sc3ccccc3)[C@@H]12
EC50: > 200 µM
IC50: 53.7 µM

N=C(N)c1ccc(NC(=O)c2ccc(C(=O)Nc3ccc(C(=N)N)cc3)c(N)c2)cc1
EC50: 53.7 µM
IC50: > 200 µM

O=C1C2CCCCC2C(=O)N1n1c(Cc2ccccc2)n[nH]c1=O (stereo not given)
EC50: > 200 µM
IC50: > 200 µM

Cc1ccc2nnc(NS(=O)(=O)c3cc(C)c(Cl)cc3S)n2n1
EC50: > 200 µM
IC50: > 200 µM

O=C(/C=C/c1ccccc1)CCN1CCCCC1
EC50: > 200 µM
IC50: 10.2 µM

CSc1c(C#N)c(N)n(-c2ccc(Cl)cc2)c(=O)c1C#N
EC50: 67.6 µM
IC50: 72.4 µM

O=C1C(c2ccc([N+](=O)[O-])cc2)=C(Cl)C(=O)c2c(O)cccc21
EC50: > 398 µM
IC50: 8.71 µM

Brc1ccc2nc(-c3ccccc3)c3ccccc3c2c1
EC50: > 200 µM
IC50: > 200 µM

Cn1c(=O)sc2cc(C(=S)N3CCN(c4ccccc4)CC3)ccc21
EC50: 87.1 µM
IC50: 107 µM

Nc1nc2c(c(-c3cccc(Cl)c3)n1)COC/C2=C\c1cccc(Cl)c1
EC50: > 200 µM
IC50: > 200 µM

O=C(CSS(=O)(=O)O)c1ccccc1
EC50: > 200 µM
IC50: > 200 µM

CCc1c(C)c2cc(N)ccc2[nH]c1=O
EC50: > 200 µM
IC50: 29.5 µM

N#Cc1c(N)c(-c2ccc(Cl)cc2)c(F)c2ccccc12
EC50: 178 µM
IC50: > 200 µM

CCOC(=O)C[P+](c1ccc(Cl)cc1)(c1ccc(Cl)cc1)c1ccc(Cl)cc1
EC50: > 200 µM
IC50: 18.6 µM

COc1ccccc1N1CCN(S(=O)(=O)c2ccc(Cl)cc2)C1=N
EC50: > 200 µM
IC50: 77.6 µM

CCCC(=O)Oc1ccc2c(C)cc(=O)oc2c1
EC50: > 200 µM
IC50: > 200 µM

CC1(C)CC2C(C1=O)C1(C)CCCC2(C)C1=O (stereo not given)
EC50: > 200 µM
IC50: > 200 µM

O=C(O)C(O[N+](=O)[O-])c1ccccc1 (stereo not given)
outcome: inactive

N#CC1N(C(=O)c2ccc(F)cc2)c2ccccc2N1C(=O)c1ccc(F)cc1
EC50: > 200 µM
IC50: 74.1 µM

CC(=S)N=Cc1c(C)[nH]n(-c2ccccc2)c1=O
EC50: > 100 µM
IC50: 41.7 µM

COC(=O)C1C2CC3c4[nH]c5cc(OC)ccc5c4CCN3CC2CC(OC)C1OC (stereo not given)
EC50: > 200 µM
IC50: > 200 µM

COC(=O)c1cc(C(c2cc(C(=O)OC)c(OC)c(Br)c2C)C(Cl)Cl)c(C)c(Br)c1OC
EC50: > 200 µM
IC50: 10 µM

CCCCCCCCCCOCCC(=O)OCC1OC(n2cc(C)c(=O)[nH]c2=O)CC1N=[N+]=[N-] (stereo not given)
outcome: active
IC50: 33.9 µM

C=C1C(=O)[C@@]23CC1C(O)[C@@H](OC(C)=O)[C@@H]2C1(C)C(OC(C)=O)C[C@@H](OC(C)=O)C(C)(C)[C@@H]1C[C@H]3OC(C)=O (stereo not given in full)
EC50: > 200 µM
IC50: 0.851 µM

CC1(C)Oc2ccccc2N2O[C@@H]3C(=O)N(c4ccccc4)C(=O)[C@@H]3C21c1ccccc1 (stereo not given in full)
outcome: inactive

O=C(c1ccccc1)c1cccc(C(=O)c2ccccc2)c1
EC50: > 25.1 µM
IC50: > 25.1 µM

O=C(/C=C/c1ccc2c(c1)OCO2)N1CCCCC1
outcome: inactive

Cc1cc(/C(C#N)=C/c2ccc(N(C)C)cc2)cc(C)c1[N+](=O)[O-]
EC50: > 2 µM
IC50: 0.105 µM

Cn1c(COc2ccc(/C=N\NC(=O)c3ccc(C(=O)N/N=C/c4ccc(OCc5c[n+]6ccccc6n5C)cc4)cc3)cc2)c[n+]2ccccc12
EC50: 4.57 µM
IC50: 9.55 µM

O=c1cnn(C2OC(C(O)CO)C(O)C2O)c(=O)[nH]1 (stereo not given)
outcome: inactive

CC12c3ccccc3C(c3ccccc31)C1C(=O)OC(=O)C12 (stereo not given)
EC50: > 135 µM
IC50: 21.4 µM

C=CCNC(=S)NC=C(C(N)=O)C(N)=O
EC50: > 200 µM
IC50: > 200 µM

CCOC(=O)c1cnc(-n2[nH]c(C)c(CCO)c2=O)[nH]c1=O
EC50: > 200 µM
IC50: > 200 µM

O=C(Sc1sc(=S)sc1SC(=O)c1ccccc1)c1ccccc1
EC50: > 17.8 µM
IC50: > 17.8 µM

Cc1ccc(C2=C(c3ccccc3)C(O)(c3ccccc3)C(c3ccccc3)=C2c2ccc(C)cc2)cc1
EC50: > 7.76 µM
IC50: > 7.76 µM

CCc1c(O)c2c([nH]c1=O)SC(C)(C)CC2=NCC(C)C
EC50: > 11.5 µM
IC50: > 11.5 µM

COC(=O)C1Cc2ccc(O)c(O)c2CN1 (stereo not given)
EC50: > 33.9 µM
IC50: 8.91 µM

Cc1cn([C@H]2C[C@@H]3[C@@H](COC(CCc4ccccc4)N3O)O2)c(=O)[nH]c1=O (stereo not given in full)
EC50: 95.5 µM
IC50: 151 µM

O=S(O)CCCCSSCCCCS(=O)(O)=S
outcome: inactive

O=C1C(C(c2ccccc2)N2CCOCC2)=C(O)C(c2ccccc2)N1c1ccccc1 (stereo not given)
outcome: inactive

Cc1cn(C2CC(F)C(COC(=O)CCCCCCCCCCCN=[N+]=[N-])O2)c(=O)[nH]c1=O (stereo not given)
EC50: 0.000631 µM
IC50: 2 µM

CN(C)CCCNc1ccc2c(=O)n(CCN(C)C)c(=O)n3c4ccccc4c(=O)c1c23
EC50: > 0.2 µM
IC50: 0.0776 µM

COC(OC)C1OC(CO)C(n2cc(F)c(=O)[nH]c2=O)C1O (stereo not given)
EC50: > 200 µM
IC50: > 200 µM

CCOC(=O)c1c(NC(=O)c2ccc(OC)cc2)sc2c1CCCC2
EC50: > 151 µM
IC50: > 151 µM

Cc1ccc(S(=O)(=O)CC2(Br)Cc3ccccc3C2=O)cc1 (stereo not given)
EC50: > 200 µM
IC50: 5.75 µM

O=c1c(C=Nc2ccccc2Cl)c(O)n(-c2ccccc2)c(=O)n1-c1ccccc1
outcome: inactive

NS(=O)(=O)c1nnc(NS(=O)(=O)c2cccc3cccnc23)s1
EC50: > 200 µM
IC50: > 200 µM

CCC(=O)C1=C(OC(C)=O)C2Cc3c(n(C)c4ccccc34)C(C1)N2C (stereo not given)
outcome: inactive

COc1cc2c[n+](C)c3c(c2cc1OC)Cc1cc2c(cc1-3)OCO2
EC50: > 19.5 µM
IC50: > 19.5 µM

CN1C(=O)CC2C(=O)N(Cc3ccccc3)C(=O)C2C1=O (stereo not given)
EC50: > 347 µM
IC50: > 347 µM

CC(C)C1C(=O)N(c2c(F)c(F)c(F)c(F)c2F)C(=S)N1CCS(=O)c1ccccc1 (stereo not given)
EC50: > 200 µM
IC50: 9.33 µM

COc1cccc(C2ON=C(c3ccccc3)N2C23CC4CC(CC(C4)C2)C3)c1 (stereo not given)
EC50: > 200 µM
IC50: 58.9 µM

CCO/C=N/c1[nH]c(C)c(Cc2ccccc2)c1C#N
EC50: > 50.1 µM
IC50: > 50.1 µM

CC(=O)N/N=C/c1ccc(N(C)C)cc1
EC50: > 200 µM
IC50: > 200 µM

OCC1OC(O)C(N=C/C=C/c2ccccc2)C(O)C1O (stereo not given)
EC50: > 200 µM
IC50: 22.9 µM

COC(=O)CC1C(C(C)(OC)OC)C(=O)N1[Si](C)(C)C(C)(C)C (stereo not given)
EC50: > 363 µM
IC50: > 363 µM

O/N=C1\CN2CCC1CC2
outcome: inactive

COC1/C=C/OC2(C)Oc3c(C)c(O)c4c(O)c(c(C=NN5C(C)CN(Cc6ccc(Cl)cc6)CC5C)c(O)c4c3C2=O)NC(=O)/C(C)=C/C=C/C(C)C(O)C(C)C(O)C(C)C(OC(C)=O)C1C (stereo not given)
EC50: > 200 µM
IC50: 6.17 µM

COc1cc2c(cc1OC)/C(=C/c1ccc(N(C)C)cc1)C=C2
EC50: > 17 µM
IC50: > 17 µM

Cc1cn(C(Cc2ccccc2)OCC[Se]c2ccccc2)c(=O)[nH]c1=O (stereo not given)
EC50: 100 µM
IC50: > 200 µM

Cc1cc2c(cc1C)NC(=O)C(C)CN2 (stereo not given)
EC50: > 200 µM
IC50: > 200 µM

CC(C)(C)OC(=O)C1/C(=C/CBr)CN1C(=O)OC(C)(C)C (stereo not given)
EC50: > 200 µM
IC50: 3.98 µM

O=C1CC([C@H](NC(=O)OCc2ccccc2)C(=O)O)ON1 (stereo not given in full)
outcome: inactive

O=c1cc(/C=C/c2ccccc2)c2ccc(O/C(=C\c3ccccc3)c3nc4ccccc4c(=O)o3)cc2o1
outcome: inactive

O=C(O)C/C=C(\C(=O)O)N1C(=O)c2ccccc2C1=O
outcome: inactive

CCSc1n/c(=C\c2ccco2)c2nnnn12
EC50: > 50.1 µM
IC50: > 50.1 µM

O=c1[nH]c(=O)n(C2CC(O)C(CO)O2)cc1C#Cc1cc(F)cc(F)c1 (stereo not given)
EC50: > 692 µM
IC50: 355 µM

CC(C)Oc1c(-c2c(OC(C)C)c(=O)c2=O)c(=O)c1=O
EC50: > 200 µM
IC50: > 200 µM
